Data on 33 molecules can be found in patent publication US9884048B2, “ERK inhibitors” (Merck Sharp & Dohme Corp., priority 2014, dated 2018).

Structures are written as SMILES.

phosphorylated active hERK2 enzyme, sequence (P28482 whole entry): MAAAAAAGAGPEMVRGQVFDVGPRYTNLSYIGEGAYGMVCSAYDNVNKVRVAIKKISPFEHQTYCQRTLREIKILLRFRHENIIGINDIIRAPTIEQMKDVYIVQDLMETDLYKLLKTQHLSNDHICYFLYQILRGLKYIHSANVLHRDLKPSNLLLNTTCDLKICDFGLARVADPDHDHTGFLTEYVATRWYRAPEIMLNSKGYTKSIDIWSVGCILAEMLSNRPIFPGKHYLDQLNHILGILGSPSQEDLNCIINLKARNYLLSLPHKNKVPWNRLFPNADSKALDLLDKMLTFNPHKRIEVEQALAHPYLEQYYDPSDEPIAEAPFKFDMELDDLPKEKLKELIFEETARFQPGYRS

This experiment has as its target phosphorylated active hERK2 enzyme (Homo sapiens (Human), UniProt P28482). Conditions: read-out: ERK2 IC50; IMAP-FP assay; 0.5 nM hERK2, 30 μM ATP; 10 point titration, 3 μM starting concentration.
What is called IC50 is the concentration needed to halve the response being measured. Turning to `Cc1cc(-n2ncc3cc(NC(=O)NCc4cc(C)nn4C)ncc32)ccn1` [Example 119, 1-[(1,3-dimethyl-1H-pyrazol-5-yl)methyl]-3-[1-(2-methylpyridin-4-yl)-1H-pyrazolo[3,4-c]pyridin-5-yl)urea], the IC50 turned out to be 96.6 nM. The value for `CC(=O)NCc1nc(NC(=O)N[C@H](C)c2ccccc2)cc2cnn(-c3ccc(F)cc3)c12` [Example 325, N-{[1-(4-fluorophenyl)-5-({[(1R)-1-phenylethyl]carbamoyl}amino)-1H-pyrazolo[3,4-c]pyridin-7-yl]methyl}acetamide] was 289 nM.

Consider `Cc1cc(-n2ncc3cc(NC(=O)NCC4Cc5ccccc5N(C)C4)ncc32)ccn1` (stereo not drawn) [Example 99, 1-[1-(2-methylpyridin-4-yl)-1H-pyrazolo[3,4-c]pyridin-5-yl]-3-[(1-methyl-1,2,3,4-tetrahydroquinolin-3-yl)methyl]urea], for which the IC50 worked out at 2.31 nM. With `COC[C@@H](NC(=O)Nc1cc2cnn(-c3ccnc(C)c3)c2cn1)c1ccc(F)cc1` [Example 33, 1-[(1S)-1-(4-fluorophenyl)-2-methoxyethyl]-3-[1-(2-methylpyridin-4-yl)-1H-pyrazolo[3,4-c]pyridin-5-yl]urea], the IC50 stood at 590 nM. `Cc1cc(-n2ncc3cc(NC(=O)NC(C)c4csc(C)n4)ncc32)ccn1` (stereo not drawn) [Example 123, 1-[1-(2-methylpyridin-4-yl)-1H-pyrazolo[3,4-c]pyridin-5-yl]-3-[1-(2-methyl-1,3-thiazol-4-yl)ethyl]urea]: the IC50 was found to be 24.8 nM.

For the molecule `Cc1cc(-n2ncc3cc(NC(=O)NC4CCN(Cc5c(F)cccc5F)C4)ncc32)ccn1` (stereo not drawn) [Example 271, 1-[1-(2,6-difluorobenzyl)pyrrolidin-3-yl]-3-[1-(2-methylpyridin-4-yl)-1H-pyrazolo[3,4-c]pyridin-5-yl]urea], the IC50 stood at 0.997 nM. The value for `Cc1cc(-n2ncc3cc(NC(=O)NC(CN)c4ccccc4)ncc32)ccn1` (stereo not drawn) [Example 62, 1-(2-amino-1-phenylethyl)-3-[1-(2-methylpyridin-4-yl)-1H-pyrazolo[3,4-c]pyridin-5-yl]urea] was 0.962 nM; that for `CC(C)(O)[C@@H](NC(=O)Nc1cc2cnn(-c3ccc(F)cc3)c2cn1)c1ccc(F)cc1` [Example 295, 1-[(1S)-1-(4-fluorophenyl)-2-hydroxy-2-methylpropyl]-3-[1-(4-fluorophenyl)-1H-pyrazolo[3,4-c]pyridin-5-yl]urea] was 1.29 nM. Regarding `Cc1cc(-n2ncc3cc(NC(=O)NC(CCN(C)C)c4ccccc4)ncc32)ccn1` (stereo not drawn) [Example 51, 1-[3-(dimethylamino)-1-phenylpropyl]-3-[1-(2-methylpyridin-4-yl)-1H-pyrazolo[3,4-c]pyridin-5-yl)urea], the IC50 came to 2.7 nM. Consider `Cc1cc(-n2ncc3cc(NC(=O)NCC(C)O)ncc32)ccn1` (stereo not drawn) [Example 120, 1-(2-hydroxypropyl)-3-[1-(2-methylpyridin-4-yl)-1H-pyrazolo[3,4-c]pyridin-5-yl)urea], for which the IC50 turned out to be 108 nM.

Take `Cc1cc(-n2ncc3cc(NC(=O)N[C@H](C)c4ccc(F)c(Cl)c4)ncc32)ccn1` [Example 219, 1-[(1R)-1-(3-chloro-4-fluorophenyl)ethyl]-3-[1-(2-methylpyridin-4-yl)-1H-pyrazolo[3,4-c]pyridin-5-yl]urea]: the IC50 worked out at 2.85 nM. `CCN(CC)C(=O)[C@@H](NC(=O)Nc1cc2cnn(-c3ccnc(C)c3)c2cn1)c1ccccc1` [Example 144, (2S)-N,N-diethyl-2-({[1-(2-methylpyridin-4-yl)-1H-pyrazolo[3,4-c]pyridin-5-yl]carbamoyl}amino)-2-phenylethanamide]: the IC50 came out at 89.3 nM. With `Cc1cc(-n2ncc3cc(NC(=O)NC(C)c4csc(C)n4)ncc32)ccn1` (stereo not drawn) [Example 131, 1-[1-(2-methylpyridin-4-yl)-1H-pyrazolo[3,4-c]pyridin-5-yl]-3-[1-(2-methyl-1,3-thiazol-4-yl)ethyl]urea], the IC50 amounted to 10.9 nM.

As for `CN1C[C@H](NC(=O)Nc2cc3cnn(-c4ccc(F)cc4)c3cn2)[C@@H](c2ccccc2)C1` [Example 208, 1-[1-(4-fluorophenyl)-1H-pyrazolo[3,4-c]pyridin-5-yl]-3-[(3R,4S)-1-methyl-4-phenylpyrrolidin-3-yl]urea], the IC50 stood at 0.579 nM. As for `Cc1cc(-n2ncc3cc(NC(=O)NC4CCN(Cc5cccnc5Cl)C4)ncc32)ccn1` (stereo not drawn) [Example 281, 1-{1-[(2-chloropyridin-3-yl)methyl]pyrrolidin-3-yl}-3-[1-(2-methylpyridin-4-yl)-1H-pyrazolo[3,4-c]pyridin-5-yl]urea], the IC50 was determined as 2.84 nM. In the case of `CCN1C[C@H](NC(=O)Nc2cc3cnn(-c4ccnc(C)c4)c3cn2)[C@@H](Oc2cncc(F)c2)C1` [Example 277, 1-{(3S,4S)-1-ethyl-4-[(5-fluoropyridin-3-yl)oxy]pyrrolidin-3-yl}-3-[1-(2-methylpyridin-4-yl)-1H-pyrazolo[3,4-c]pyridin-5-yl]urea], the half-inhibitory concentration (IC50) stood at 594 nM. Regarding `Cc1cc(-n2ncc3cc(NC(=O)N[C@@H]4CN(C)[C@H](C)[C@H]4c4ccccc4C)ncc32)ccn1` [Example 106, 1-[(3S,4S,5R)-1,5-dimethyl-4-(2-methylphenyl)-pyrrolidin-3-yl]-3-[1-(2-methylpyridin-4-yl)-1H-pyrazolo[3,4-c]pyridin-5-yl)urea], the IC50 was found to be 1.52 nM.

On to `Cc1cc(-n2ncc3cc(NC(=O)N[C@H](C)c4ccccc4)ncc32)ccn1` [Example 59, 1-[1-(2-methylpyridin-4-yl)-1H-pyrazolo[3,4-c]pyridin-5-yl]-3-[(1R)-1-phenylethyl]urea], for which the IC50 was found to be 1.01 nM. Take `Cc1cc(-n2ncc3cc(NC(=O)N[C@H](C)c4ccccc4)nc(COCCO)c32)ccn1` [Example 253, 1-{7-[(2-hydroxyethoxy)methyl]-1-(2-methylpyridin-4-yl)-1H-pyrazolo[3,4-c]pyridin-5-yl}-3-[(1R)-1-phenylethyl]urea]: the concentration for half-maximal inhibition (IC50) was found to be 23.4 nM.

For the molecule `Cc1cc(-n2ncc3cc(NC(=O)N[C@H]4CN(C)C[C@@H]4C4CCCCC4)ncc32)ccn1` [Example 31, 1-[(3R,4S)-4-cyclohexyl-1-methylpyrrolidin-3-yl]-3-[1-(2-methylpyridin-4-yl)-1H-pyrazolo[3,4-c]pyridin-5-yl]urea], the IC50 was 35.1 nM. As to `C[C@@H](NC(=O)Nc1cc2cnn(-c3ccc(F)cc3)c2c(COCCN2CCOCC2)n1)c1ccccc1` [Example 244, 1-{1-(4-fluorophenyl)-7-[(2-morpholin-4-ylethoxy)methyl]-1H-pyrazolo[3,4-c]pyridin-5-y1}-3-[(1R)-1-phenylethyl]urea], the IC50 stood at 188 nM. For `Cc1cc(-n2ncc3cc(NC(=O)NC4CCCN(c5ccccc5)C4)ncc32)ccn1` (stereo not drawn) [Example 82, 1H-pyrazolo[3,4-c]pyridin-1-[1-(2-methylpyridin-4-yl)-5-yl]-3-(1-phenylpiperidin-3-yl)urea], the IC50 came to 7.61 nM.

For `C[C@@H](NC(=O)Nc1cc2cnn(CC3CC3)c2c(CO)n1)c1ccccc1` [Example 308, 1-[1-(cyclopropylmethyl)-7-(hydroxymethyl)-1H-pyrazolo[3,4-c]pyridin-5-yl]-3-[(1R)-1-phenylethyl]urea], the IC50 was found to be 79.5 nM. The value for `CCCn1ncc2cc(NC(=O)N[C@H](C)c3ccccc3)nc(CO)c21` [Example 305, 1-[7-(hydroxymethyl)-1-propyl-1H-pyrazolo[3,4-c]pyridin-5-yl]-3-[(1R)-1-phenylethyl]urea] was 43.7 nM; that for `Cc1cc(-n2ncc3cc(NC(=O)NC4CCN(Cc5cccnc5)C4)ncc32)ccn1` (stereo not drawn) [Example 270, 1-[1-(2-methylpyridin-4-yl)-1H-pyrazolo[3,4-c]pyridin-5-yl]-3-[1-(pyridin-3-ylmethyl)-pyrrolidin-3-yl]urea] was 45.3 nM. The same measure for `Cc1cc(-n2ncc3cc(NC(=O)N[C@H](C)c4ccccc4Cl)ncc32)ccn1` [Example 44, 1-[(1R)-1-(2-chlorophenyl)ethyl]-3-[1-(2-methylpyridin-4-yl)-1H-pyrazolo[3,4-c]pyridin-5-yl]urea]: 15.6 nM; for `CNC(=O)[C@@H](NC(=O)Nc1cc2cnn(-c3ccnc(C)c3)c2cn1)c1ccccc1` [Example 142, (2S)-N-methyl-2-({[1-(2-methylpyridin-4-yl)-1H-pyrazolo[3,4-c]pyridin-5-yl]carbamoyl}amino)-2-phenylethanamide]: 1.09 nM. As for `CC(C)(O)[C@@H](NC(=O)Nc1cc2cnn(-c3ncc4c(n3)CNCC4)c2cn1)c1ccc(F)cc1` [Example 317, 1-[(1S)-1-(4-fluorophenyl)-2-hydroxy-2-methylpropyl]-3-[1-(5,6,7,8-tetrahydropyrido[3,4-d]pyrimidin-2-yl)-1H-pyrazolo[3,4-c]pyridin-5-yl]urea], the IC50 came out at 327 nM.

With `Cc1cc(-n2ncc3cc(NC(=O)N[C@H](CO)c4ccccc4)ncc32)ccn1` [Example 65, 1-[(1S)-2-hydroxy-1-phenylethyl]-3-[1-(2-methylpyridin-4-yl)-1H-pyrazolo[3,4-c]pyridin-5-yl]urea], the IC50 turned out to be 1.02 nM. `Cn1cc2cc(-n3ncc4cc(NC(=O)N[C@@H](c5ccccc5)C(C)(C)O)ncc43)ccc2n1` [Example 207, 1-[(1S)-2-hydroxy-2-methyl-1-phenylpropyl]-3[-1-(2-methyl-2H-indazol-5-yl)-1H-pyrazolo[3,4-c]pyridin-5-yl]urea]: the IC50 came to 0.33 nM. The value for `C=CC(=O)NCCc1nc(NC(=O)N[C@H](C)c2ccccc2)cc2cnn(C)c12` [Example 329, N-{2-[1-Methyl-5-({[(1R)-1-phenylethyl]carbamoyl}amino)-1H-pyrazolo[3,4-c]pyridin-7-yl]ethyl}prop-2-enamide] was 563 nM; that for `CO[C@H]1CN(Cc2c(F)cccc2F)C[C@@H]1NC(=O)Nc1cc2cnn(-c3ccnc(C)c3)c2cn1` (single isomer, unassigned) [Example 273, 1-[(3S,4S) or (3R, 4R)-1-(2,6-difluorobenzyl)-4-methoxypyrrolidin-3-yl]-3-[1-(2-methylpyridin-4-yl)-1H-pyrazolo[3,4-c]pyridin-5-yl]urea] was 2060 nM; that for `CCn1ncc2cc(NC(=O)N[C@@H](c3ccccc3)C(C)(C)O)nc(OC)c21` [Example 257, 1-(1-ethyl-7-methoxy-1H-pyrazolo[3,4-c]pyridin-5-yl)-3-[(1S)-2-hydroxy-2-methyl-1-phenylpropyl]urea] was 44.9 nM.
